Results as given in paper PMC10099595, “Multimodal 4-arylchromene derivatives with microtubule-destabilizing, anti-angiogenic, and MYB-inhibitory activities” (Cancer Drug Resistance, 2023).
Read-outs that look alike come from different tables or passages of the source.

Columns and labels:
MYB = target: T1, MYB (Homo sapiens, UniProt P10242, K503R/K527R); experiment: Luciferase-dependent MYB activity assay (HEK-MYB-Luc reporter cells); type: cell-based; conditions: HEK-293 reporter cells, 16 h; read-out: IC50 inhibition of MYB activity
T1 construct: expressed in transfected cells; host or cells: HEK-293 (HEK-MYB-Luc reporter cell line)
T1 sequence (P10242 whole entry K503R/K527R): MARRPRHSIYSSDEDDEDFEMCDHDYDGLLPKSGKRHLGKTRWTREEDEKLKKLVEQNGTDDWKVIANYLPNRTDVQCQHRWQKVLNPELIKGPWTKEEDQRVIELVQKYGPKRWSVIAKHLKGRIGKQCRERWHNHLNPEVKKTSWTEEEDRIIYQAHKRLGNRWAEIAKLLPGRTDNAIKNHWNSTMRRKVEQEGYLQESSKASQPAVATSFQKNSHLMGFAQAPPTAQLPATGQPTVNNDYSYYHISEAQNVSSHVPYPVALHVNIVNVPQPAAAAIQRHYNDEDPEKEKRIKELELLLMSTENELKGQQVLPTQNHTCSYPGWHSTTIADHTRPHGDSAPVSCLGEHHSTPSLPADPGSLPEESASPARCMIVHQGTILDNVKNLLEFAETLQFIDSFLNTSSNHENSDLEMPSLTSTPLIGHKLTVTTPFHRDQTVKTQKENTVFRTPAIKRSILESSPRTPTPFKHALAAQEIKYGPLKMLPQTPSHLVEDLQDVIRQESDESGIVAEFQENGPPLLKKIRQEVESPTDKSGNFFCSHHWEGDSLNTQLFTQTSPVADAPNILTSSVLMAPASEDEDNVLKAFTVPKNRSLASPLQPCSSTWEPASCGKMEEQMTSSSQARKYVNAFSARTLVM
Description: Compounds were tested using the HEK-MYB-Luc reporter cell line, which allows a doxycycline-dependent induction of MYB expression and harbors an MYB-dependent luciferase reporter plasmid, as previously described. After 16 h of substance treatment (0.0001-3 µM), luciferase activities were analyzed as described.

[1] = system: HT-29 colon carcinoma cells; conditions: cited from earlier work
[2] = system: HCT-116 colon carcinoma cells; conditions: cited from earlier work
[3] = system: MCF-7 breast carcinoma cells; conditions: cited from earlier work
[4] = system: tested cancer and hybrid cell lines; experiment: MTT assay, average over all tested cancer and hybrid cell lines; conditions: for IC50: Homo sapiens; for SI (IC50 HDFa cells/IC50 tumor cell average): selectivity index, HDFa vs tumor cell average
Description: An 3-(4, 5-dimethylthiazol-2-yl)-2, 5-diphenyl tetrazolium bromid (MTT) assay was used for antiproliferative studies. Cancer cells (5 × 10^4 cells/mL, 100 μL/well) were placed in 96-well plates (10 × 10^4 cells/mL for HDFA and U87 cells), and the cells were incubated for 24 h at 5% CO2 and 95% humidity. Then, cells were treated with test compounds (at various concentrations) or solely with DMSO as a negative control for 72 h. Then, 12.5 μL of a 0.5% MTT solution in phosphate-buffered saline (PBS) was added to the cells, followed by incubation for 2 h at 37 °C. After centrifugation of the plates (300 × g, 5 min, 4 °C), the medium was discarded, and 25 μL of DMSO containing 10% SDS and 0.6% acetic acid was added, followed by incubation at 37 °C for at least 1 h. Formazan absorbance at λ = 570 nm was measured using a Tecan infinite F200 microplate reader and corrected for the background (λ = 630 nm). The 50% inhibitory concentration (IC50) values were calculated from dose-response curves (means ± SD, four independent experiments) compared to DMSO-treated control cells, which were set to 100%. GraphPad Prism 9 was used for curve-fitting.
The selectivity index (SI) was calculated as a measure of selectivity toward cancer cells compared to non-malignant cells.

U-87 glioblastoma cells [5] = conditions: read-out: IC50 U87, cited from earlier work
518A2 melanoma cells [6] = conditions: cited from earlier work
[7] = system: HCT-116 p53-/- colon carcinoma cells; conditions: cited from earlier work
[8] = system: HeLa cervix carcinoma cells; set-up: method as in Köhler et al.[20]; conditions: positive control; ref Köhler et al.[20]; cited from earlier work
[9] = system: KB-V1^Vbl cervix carcinoma cells; conditions: without verapamil, cited from earlier work
[10] = system: EA.hy926 endothelial hybrid cells; conditions: cited from earlier work
[11] = system: MCF-7 breast carcinoma cells; experiment: MTT antiproliferative assay, MCF-7; type: cell-based; conditions: Homo sapiens, MCF7, 72 h
Text: (§1) The following cell lines were used: 518A2 melanoma (Department of Radiotherapy, Medical University of Vienna, Austria)[15], HeLa cervix carcinoma, KBV1^Vbl (ACC-149 cervix carcinoma, MCF7 [ACC-115]) breast carcinoma, U-87 glioblastoma, HT-29 (ACC-299), HCT-116 (ACC-581) and HCT-116p53-/- colon carcinoma, EA.hy926 (ATCC® CRL-2922^TM) endothelial hybrid cells, and HDFa (ATCC® PCS-201-012^TM) adult human dermal fibroblasts. […] Only mycoplasma-free cultures were used.

zebrafish larvae = experiment: Zebrafish angiogenesis assay (SIV area); type: in vivo; conditions: 48 h treatment; for effect on SIV growth (angiogenesis): zebrafish larvae 24 hpf, 50-1000 nM
Description: Transgenic zebrafish (Tg(fli1:EGFP, casper mutant) were bred at 28 °C.[16] After fertilization, the eggs were transferred to E3-medium (5 mm NaCl, 0.17 mm KCl, 0.33 mm CaCl, 0.33 mm MgSO4, 0.01% methylene blue, pH 7.2), followed by incubation for 24 h. The chorion was manually removed, and the larvae were treated with test compounds or solvent in six-well plates (30 fish per concentration, 5 mL/well) for 48 h. The fluorescent vasculature was documented with a Leica MZ10F and Zeiss AxioCam MRrc. To quantify the angiogenesis, the sub-intestinal vein (SIV) area was measured using ImageJ and expressed as means ± SD with the control set to 100%. The significance of SIV reduction through substance treatment was assessed using one-way analysis of variance (ANOVA), *P < 0.05; **P < 0.01; ***P < 0.001; ****P < 0.0001, with Dunnett´s multiple comparison test (GraphPad Prism 9).

[12] = system: HCT-116 p53-/- colon carcinoma cells; experiment: MTT antiproliferative assay, HCT-116 p53-/-; type: cell-based; conditions: Homo sapiens, 72 h
Text: as §1

518A2 melanoma cells [13] = experiment: MTT antiproliferative assay, 518A2; type: cell-based; conditions: Homo sapiens, 72 h
Text: as §1

[14] = system: HT-29 colon carcinoma cells; experiment: MTT antiproliferative assay, HT-29; type: cell-based; conditions: Homo sapiens, 72 h
Text: as §1

U-87 glioblastoma cells [15] = experiment: MTT antiproliferative assay, U87; type: cell-based; conditions: Homo sapiens, 72 h
Text: as §1

[16] = system: KB-V1^Vbl cervix carcinoma cells; experiment: MTT antiproliferative assay, KB-V1Vbl (with or without verapamil); type: cell-based, human; conditions: for IC50: Homo sapiens, KB-V1/Vbl, 72 h, read-out: IC50 KB-V1^Vbl
Text: as §1

[17] = system: HCT-116 colon carcinoma cells; experiment: MTT antiproliferative assay, HCT-116; type: cell-based; conditions: Homo sapiens, 72 h
Text: as §1

[18] = system: HeLa cervix carcinoma cells; experiment: MTT antiproliferative assay, HeLa; type: cell-based; conditions: Homo sapiens, 72 h
Text: as §1

[19] = system: EA.hy926 endothelial hybrid cells; experiment: MTT antiproliferative assay, EA.hy926; type: cell-based; conditions: Homo sapiens, EA.hy 926, 72 h
Text: as §1

[20] = system: HDFa adult human dermal fibroblasts; experiment: MTT cytotoxicity assay, non-malignant HDFa; type: cell-based; conditions: 72 h, non-malignant cells
Text: as §1

518A2 melanoma cells [21] = experiment: Cell-cycle analysis (FACS, propidium iodide); type: cell-based, human; conditions: 518A2 cells, 25 nM, 24 h
Description: 518A2 melanoma cells (10 × 10^4 cells/mL, 3 mL/well) were cultivated in six-well plates for 24 h. After the treatment with test compounds (10 and 25 nm), C-A4 (10 and 25 nm), or DMSO (vehicle) for an additional 24 h, the cells were trypsinized, centrifuged (300 × g, 5 min, 4 °C), and fixed in 70% EtOH for min. 24 h. For FACS measurement, cells were washed in PBS and stained with propidium iodide solution (50 µg/mL PI, 50 µg/mL RNase A in 0.1% sodium citrate) for 30 min at 37 °C. The DNA content of at least 10000 single cells was determined using a Beckmann Coulter Cytomics FC500 flow cytometer (λex = 488 nm, λem = 570 nm). CXP software (Beckman Coulter) was used to analyze the cells in the cell cycle phases (sub-G1, G1, S, G2/M).

[22] = system: microtubule cytoskeleton of 518A2 melanoma cells; experiment: Microtubule immunofluorescence staining; type: cell-based, human; conditions: 518A2 cells, 100 nM
Description: The cells were treated with test compounds and controls (25 and 100 nm) for 0.5, 1, 3, and 6 h and washed with cytoskeletal buffer (100 nm PIPES, 3 nm MgCl2, 138 nm KCl, 2 nm EGTA, 300 nm sucrose, pH 6.8). Fixation and permeabilization were performed for 5 min with 3.7% formaldehyde and 0.2% Triton X-100 in a cytoskeletal buffer. The cells were fixed with cold EtOH for 10 s, rehydrated in PBS, and blocked with 1% bovine serum albumin in PBS for 30 min. The microtubules were stained for 1 h with primary (anti-α-tubulin, mouse monoclonal antibody) and secondary antibodies (goat anti-mouse IgG-AF-546, Invitrogen) and washed with PBS between each treatment. Nuclei were stained using DAPI (1 µg/mL in PBS) for 30 min. The coverslips were placed in Roti®-Mount FluorCare. Microtubules (λex = 488 nm, λem = 507 nm) and nuclei (λex = 358 nm, λem = 461 nm) were documented by confocal microscopy (Leica TCS SP5 confocal microscope, 630 × magnification) and edited with ImageJ.

[23] = positive control, ref Köhler et al.[20]
[24] = read-out: Average IC50 value of the tested cancer and hybrid cell lines (Ø IC50)
[25] = read-out: Average IC50 value of the tested cancer and hybrid cell lines (Ø IC50), average of all cell lines of Table 2

In the case of `COc1cc(C2C(C#N)=C(N)Oc3c2ccc2ccccc32)cc(OC)c1OC` (stereo not shown) [1B], the IC50 (MYB) is given as 9.07 nM, the IC50 [1, 23] is given as 300 ± 40 nM and the IC50 [2, 23] is given as 20 ± 1.9 nM. The IC50 [3, 23] was 34 ± 2.5 nM, the IC50 [4, 24] was 53 nM and the IC50 (U-87 glioblastoma cells [5]; [23]) was 5 ± 0.2 nM. For the same compound, the IC50 (518A2 melanoma cells [6]; [23]) was 30 ± 0.1 nM, the IC50 [7, 23] was 30 ± 2 nM and the IC50 [8] was 10 ± 1 nM. For the same compound, the IC50 ([9]; ref Köhler et al.[20]) was 30 ± 1 nM and the IC50 [10, 23] was 20 ± 1 nM.

For `COc1c(I)cc(C2C(C#N)=C(N)Oc3c2c(=O)oc2ccccc32)cc1I` (stereo not shown) [1C], the IC50 ([1]; ref Köhler et al.[13]) is listed as 2500 ± 200 nM, the IC50 ([2]; ref Köhler et al.[13]) is listed as 3100 ± 100 nM and the IC50 ([3]; ref Köhler et al.[13]) is listed as 3400 ± 200 nM. The IC50 [4, 25] was over 500 nM, the IC50 (U-87 glioblastoma cells [5]; ref Köhler et al.[13]) was 5500 ± 300 nM and the IC50 (518A2 melanoma cells [6]; ref Köhler et al.[13]) was 1500 ± 100 nM. For the same compound, the IC50 ([7]; ref Köhler et al.[13]) was 2900 ± 60 nM, the IC50 ([9]; ref Köhler et al.[13]) was 3700 ± 60 nM and the IC50 ([10]; ref Köhler et al.[13]) was 2800 ± 70 nM.

In the case of `COc1ccc2c(c1)OC(N)=C(C#N)C2c1cc(Cl)c(OC)c(OC)c1` (stereo not shown) [2A, 2-Amino-3-cyano-4-(3’-chloro-4’, 5’-dimethoxyphenyl)-7-methoxy-4H-chromene], the IC50 [11] is reported as 40 ± 7 nM, the IC50 (MYB) is reported as 2.81 ± 0.3 nM and the “effect on SIV growth (angiogenesis)” value (zebrafish larvae) is reported as “inhibited angiogenesis to an extent comparable to the known inhibitor axitinib”. The IC50 [12] was 70 ± 5 nM, the IC50 [4, 25] was 53 nM and the “SI (IC50 HDFa cells/IC50 tumor cell average)” value [4] was 219. For the same compound, the IC50 (518A2 melanoma cells [13]) was 4 ± 0.3 nM, the IC50 [14] was 300 ± 20 nM and the IC50 (U-87 glioblastoma cells [15]) was 20 ± 3 nM. It also gave an IC50 ([16]; MTT, without verapamil) of 6 ± 0.5 nM, an IC50 [17] of 70 ± 5 nM and an IC50 [18] of 10 ± 0.4 nM. For the same compound, the IC50 [19] was 0.4 ± 0.06 nM, the melting point was 224 to 225 °C and the IC50 [20] was 11.5 µM.

Compound `COc1ccc2c(c1)OC(N)=C(C#N)C2c1cc(Br)c(OC)c(Br)c1` (stereo not shown) [2E, 2-Amino-3-cyano-4-(3’, 5’-dibromo-4’-methoxyphenyl)-7-methoxy-4H-chromene] has an IC50 [11] of 80 ± 3 nM, an IC50 [12] of 40 ± 3 nM and an IC50 [4, 24] of 374 nM. For the same compound, the “SI (IC50 HDFa cells/IC50 tumor cell average)” value [4] was 59, the IC50 (518A2 melanoma cells [13]) was 20 ± 2 nM and the IC50 [14] was 300 ± 2 nM. For the same compound, the IC50 (U-87 glioblastoma cells [15]) was 20 ± 2 nM, the “G2/M cell-cycle arrest (in words)” value (518A2 melanoma cells [21]) was “only a slight increase in G2/M phase cells” and the IC50 [16] was 3200 ± 300 nM. For the same compound, the “fold lower IC50 values combined with verapamil” value ([16]; KB-V1^Vbl cells, verapamil 1 µM vs none) was 320 fold, the IC50 [17] was 20 ± 2 nM and the IC50 [18] was 30 ± 3 nM. It also gave an IC50 [19] of 20 ± 1 nM and an IC50 [20] of 22.2 µM.

For `COc1ccc2c(c1)OC(N)=C(C#N)C2c1cc(I)c(OC)c(I)c1` (stereo not shown) [2F, 2-Amino-3-cyano-4-(3,5-diiodo-4-methoxyphenyl)-7-methoxy-4H-chromene], the IC50 [11] was 80 ± 4 nM, the IC50 (MYB) was 2.31 ± 0.4 nM and the “effect on SIV growth (angiogenesis)” value (zebrafish larvae) was “no significant change in blood vessel growth”. The “concentration above which toxic effect occurs” value (zebrafish larvae; zebrafish larvae) was “above 250 nM”, the IC50 [4, 25] was 43 nM and the IC50 (518A2 melanoma cells [13]) was 20 ± 0.4 nM. The IC50 [14] was 60 ± 1 nM, the IC50 (U-87 glioblastoma cells [15]) was 50 ± 10 nM and the “cells arrested before or during mitosis (G2/M)” value (518A2 melanoma cells [21]) was “about 74%”. For the same compound, the IC50 ([16]; MTT, without verapamil) was 70 ± 7 nM, the “time to change/breakdown of the microtubule cytoskeleton” value [22] was 1 h and the IC50 [17] was 30 ± 5 nM. It also gave an IC50 [18] of 30 ± 3 nM, an IC50 [19] of 20 ± 2 nM and an IC50 [20] of over 50 µM.
